Data on 16 compounds can be found in US7872045B2, “Combination therapy for glaucoma treatment” (Allergan, Inc., priority 2001, dated 2011).

The target in assay [1] is T1, human EP3 receptor (hEP3, D isoform) (Homo sapiens, UniProt P43115).
T1 construct: expressed in transfected cells; host or cells: COS-7 cells, transient transfection with pcDNA3 (lipofectin); plasma membrane fraction
T1 sequence (P43115 1-374 isoform P43115-4): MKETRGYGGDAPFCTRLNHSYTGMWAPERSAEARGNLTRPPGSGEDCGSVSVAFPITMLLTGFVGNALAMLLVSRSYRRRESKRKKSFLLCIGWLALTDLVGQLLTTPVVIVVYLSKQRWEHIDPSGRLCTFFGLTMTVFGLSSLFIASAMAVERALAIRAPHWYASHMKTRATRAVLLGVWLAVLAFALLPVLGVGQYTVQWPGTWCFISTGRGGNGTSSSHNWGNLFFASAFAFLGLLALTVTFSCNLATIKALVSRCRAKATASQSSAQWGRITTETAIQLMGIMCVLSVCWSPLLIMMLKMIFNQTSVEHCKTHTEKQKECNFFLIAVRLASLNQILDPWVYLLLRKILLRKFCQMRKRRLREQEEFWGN
Put plainly: Radioligand binding competition vs [3H]PGE2, human recombinant EP3 receptor. The settings on record: [3H]PGE2 competition, plasma membranes of transfected cells (COS-7 transient; HEK-293 also named), 60 min 25° C. As to the method:
(§1) HEK-293 cells stably expressing the human or feline FP receptor, or EP1, EP2, EP3, or EP4 receptors were washed with TME buffer, scraped from the bottom of the flasks, and homogenized for 30 sec using a Brinkman PT 10/35 polytron. TME buffer was added to achieve a final 40 ml volume in the centrifuge tubes (the composition of TME is […]; ION HCl is added to achieve a pH of 7.4).
(§2) [^3H-] PGE2 (5 nM; specific activity 180 Ci mmol) was used as the radioligand for EP receptors. Binding studies employing EP1, EP2, EP3, EP4 were performed in duplicate in at least three separate experiments. A 200 μl assay volume was used. Incubations were for 60 min at 25° C. and were terminated by the addition of 4 ml of ice-cold 50 mM TRIS-HCl, followed by rapid filtration through Whatman GF/B filters and three additional 4 ml washes in a cell harvester (Brandel). Non-specific binding determined with 10^−5M of unlabeled PGE2,.
Human Recombinant EP3 and TP Receptors: Transient Transfectants.
Plasmids encoding the human EP3 (D isoform) or TP receptor were prepared by cloning the respective coding sequences into a pcDNA3 vector (Invitrogen). COS-7 cells were transfected with pcDNA3 containing cDNA encoding the EP3 or TP receptor by employing the lipofectin method, according to the manufacturers instructions (Gibco). For radioligand binding studies, cells were harvested two days after transfection.
Radioligand binding studies on plasma membrane fractions prepared from cells were performed as follows. Cells washed with TME buffer were scraped from the bottom of the plates and homogenized for 30 sec using a Brinkman PT 10/35 polytron. TME buffer was added as necessary to achieve a 40 ml volume in the centrifuge tubes. TME is comprised of 50 mM TRIS base, 10 mM MgCl2, 1 mM EDTA; pH 7.4 is achieved by adding 1 N HCl. The cell homogenate was centrifuged at 19,000 rpm for 20-25 min at 4° C. using a Beckman Ti-60 or T ? -70 rotor. The pellet was then resuspended in TME buffer to provide a final protein concentration of 1 mg/ml, as determined by Bio-Rad assay. Radioligand binding assays were performed in a 100 μl or 200 μl volume.
The binding of [^3H] PGE2 (specific activity 165 Ci/mmol) was determined in duplicate and, in at least 3 separate experiments. Incubations were for 60 min at 25° C. and were terminated by the addition of 4 ml of ice-cold 50 mM TRIS-HCl followed by rapid filtration through Whatman GF/B filters and three additional 4 ml washes in a cell harvester (Brandel). Competition studies were performed using a final concentration of 2.5 or 5 nM [H] PGE2 and non-specific binding was determined with 10^−5 M unlabelled PGE2.

For assay [2], the target named is T2, human EP4 receptor (hEP4) (Homo sapiens, UniProt P35408).
T2 construct: expressed in transfected cells; plasma membrane fraction
T2 sequence (P35408 whole entry): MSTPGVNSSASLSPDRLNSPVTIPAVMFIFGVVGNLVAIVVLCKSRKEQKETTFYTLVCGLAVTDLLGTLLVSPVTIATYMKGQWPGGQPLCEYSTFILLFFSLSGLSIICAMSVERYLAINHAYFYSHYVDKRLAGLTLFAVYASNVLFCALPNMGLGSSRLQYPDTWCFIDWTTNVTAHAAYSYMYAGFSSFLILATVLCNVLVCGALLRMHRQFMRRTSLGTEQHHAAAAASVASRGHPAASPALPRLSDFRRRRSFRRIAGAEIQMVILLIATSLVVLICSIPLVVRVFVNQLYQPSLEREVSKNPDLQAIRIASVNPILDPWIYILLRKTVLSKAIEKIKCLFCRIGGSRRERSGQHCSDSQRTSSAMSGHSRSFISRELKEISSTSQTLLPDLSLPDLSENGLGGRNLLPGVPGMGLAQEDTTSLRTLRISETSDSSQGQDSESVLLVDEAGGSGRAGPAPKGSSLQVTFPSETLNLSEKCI
Put plainly: Radioligand binding competition vs [3H]PGE2, human recombinant EP4 receptor. To be noted: [3H]PGE2 competition, plasma membranes of HEK-293 stable transfectants, 60 min 25° C. The method, then: Human Recombinant EP1, EP2, EP4, and FP Receptors: Stable Transfectants
as §1
The cell homogenate was centrifuged at 19000 r.p.m. for 20 min at 4° C. using a Beckman Ti-60 rotor. The resultant pellet was resuspended in TME buffer to give a final 1 mg/ml protein concentration, as determined by Biorad assay. Radioligand binding competition assays vs. [^3H-]17 -phenyl PGF2α (5 nM) were performed in a 100 μl volume for 60 min. Binding reactions were started by adding plasma membrane fraction. The reaction was terminated by the addition of 4 ml ice-cold TRIS-HCl buffer and rapid filtration through glass fiber GF/B filters using a Brandel cell harvester. The filters were washed 3 times with ice-cold buffer and oven dried for one hour. Non-specific binding was determined with 10 uM unlabeled 17 -phenyl PGF2α.
as §2
Plasmids encoding the human EP1, EP2, EP4, and FP receptors were prepared by cloning the respective coding sequences into the eukaryotic expression vector pCEP4 (Invitrogen). The pCEP4 vector contains an Epstein Barr virus (EBV) origin of replication, which permits episomal replication in primate cell lines expressing EBV nuclear antigen (EBNA-1). Similarly, competitive experiments were caried out using [3H]17-phenylPGF2α at 5 nM in the presence of test ligands at various concentrations. Also non-specific binding was, determined in the presence of excess unlabeled PGF2α (10^−5 M).
It also contains a hygromycin resistance gene that is used for eukaryotic selection. The cells employed for stable transfection were human embryonic kidney cells (HEK-293) that were transfected with and express the EBNA-1 protein. These HEK-293-EBNA cells (Invitrogen) were grown in medium containing Geneticin (G418) to maintain expression of the EBNA-1 protein. HEK-293 cells were grown in DMEM with 10% fetal bovine serum (FBS), 250 μg ml G418 (Life Technologies) and 200 μg ml^−1 gentamicin or penicillin/streptomycin.
For transfection, the cells were grown to 50-60% confluency on 10 cm plates. The plasmid pCEP4 incorporating cDNA inserts for the respective human prostanoid receptor (20 μg) was added to 500 μl of 250 mM CaCl2. HEPES buffered saline ×2 (2×HBS, 280 mM NaCl, 20 mM HEPES acid, 1.5 mM Na2 HPO4, pH 7.05-7.12) was then added dropwise to a total of […], with continuous vortexing at room temperature. After 30 min, 9 ml DMEM were added to the mixture. The DNA/DMEM/calcium phosphate mixture was then added to the cells, which had been previously rinsed with 10 ml PBS. The cells were then incubated for 5 hr at 37° C. in humidified 95% air/5% CO2. The calcium phosphate solution was then removed and the cells were treated with 10% glycerol in DMEM for 2 min. The glycerol solution was then replaced by DMEM with 10% FBS. The cells were incubated overnight and the medium was replaced by DMEM/10% FBS containing 250 μg ml^−1 G418 and penicillin/streptomycin. The following day hygromycin B was added to a final concentration of 200 μg ml^−1. […]

The term IC50 denotes the point on the concentration scale where inhibition reaches its midpoint. Turning to `COC(=O)CSCCCS[C@H]1C(=O)C[C@@H](O)[C@@H]1/C=C/C(O)Cc1ccc2ccccc2c1` (single isomer, unassigned) [Example 21H], the IC50 was more than 10000 nM in assay [1] and 100 nM in assay [2].

In the case of `COC(=O)CSCCCS[C@H]1C(=O)C[C@@H](O)[C@@H]1/C=C/C(O)Cc1ccc2ccccc2c1` (single isomer, unassigned) [Example 21L], the IC50 was more than 10000 nM in assay [1] and 13 nM in assay [2].

For the compound `O=C(O)CSCCCS[C@H]1C(=O)C[C@@H](O)[C@@H]1/C=C/C(O)Cc1ccc2ccccc2c1` (single isomer, unassigned) [Example 22H], the results for the half-inhibitory concentration (IC50) in assay [1] and in assay [2] were more than 10000 nM and 32 nM, respectively.

Turning to `COC(=O)CSCCCS[C@H]1C(=O)C[C@@H](O)[C@@H]1/C=C/C(O)Cc1csc2ccccc12` (single isomer, unassigned) [Example 24H], the IC50 in assay [2] was found to be 200 nM.

For the compound `COC(=O)CSCCCS[C@H]1C(=O)C[C@@H](O)[C@@H]1/C=C/C(C)(O)CCc1ccc2ccccc2c1` (single isomer, unassigned) [Example 27H], in assay [2], the IC50 was determined as 500 nM.

For `COC(=O)CSCCCS[C@H]1C(=O)C[C@@H](O)[C@@H]1/C=C/C(C)(O)CCc1ccc2ccccc2c1` (single isomer, unassigned) [Example 27L], the 50% inhibitory concentration (IC50) in assay [2] worked out at 3400 nM.

Consider `COC(=O)CSCCCS[C@H]1C(=O)C[C@@H](O)[C@@H]1/C=C/C(O)CCc1ccc2ccccc2c1` (stereo partly drawn) [Example 9H, {3-[(1R,2S,3R)-3-Hydroxy-2-((S)-(E)-3-(hydroxy)-5-(naphthyl)pent-1-enyl)-5-oxocyclopentylsulfanyl]propylsulfanyl}acetic acid methyl ester], for which, in assay [2], the concentration for half-maximal inhibition (IC50) was found to be 40 nM.

For the compound `COC(=O)CSCCCS[C@H]1C(=O)C[C@@H](O)[C@@H]1/C=C/C(O)CCc1ccc2ccccc2c1` (stereo partly drawn) [Example 9L, {3-[(1R,2S,3R)-3-Hydroxy-2-((S)-(E)-3-(hydroxy)-5-(naphthyl)pent-1-enyl)-5-oxocyclopentylsulfanyl]propylsulfanyl}acetic acid methyl ester], the concentration for half-maximal inhibition (IC50) in assay [1] was more than 10000 nM.

In the case of `COC(=O)CSCCCS[C@H]1C(=O)C[C@@H](O)[C@@H]1/C=C/[C@@H](O)CCc1cc2ccccc2s1` [Example 13H, {3-[(1R,2S,3R)-3-Hydroxy-2-((S)-(E)-3-hydroxy-5-(benzothienyl)pent-1-enyl)-5-oxocyclopentylsulfanyl]propylsulfanyl}acetic acid methyl ester], in assay [2], the concentration for half-maximal inhibition (IC50) was 91 nM.

On to `CC(O)(/C=C/[C@H]1[C@H](O)CC(=O)[C@@H]1SCCCSCC(=O)O)CCc1ccc2ccccc2c1` (stereo partly drawn) [Example 28H, {3-[(1R,2S,3R)-3-Hydroxy-2-((S)-(E)-3-(hydroxy)-3-(methyl)-5-(naphthyl)pent-1-enyl)-5-oxocyclopentylsulfanyl]propylsulfanyl}acetic acid], for which the IC50 was more than 10000 nM in assay [1] and 1700 nM in assay [2].

For the compound `CC(O)(/C=C/[C@H]1[C@H](O)CC(=O)[C@@H]1SCCCSCC(=O)O)CCc1ccc2ccccc2c1` (stereo partly drawn) [Example 28L, {3-[(1R,2S,3R)-3-Hydroxy-2-((S)-(E)-3-(hydroxy)-3-(methyl)-5-(naphthyl)pent-1-enyl)-5-oxocyclopentylsulfanyl]propylsulfanyl}acetic acid], the results for the IC50 in assay [1] and in assay [2] were more than 10000 nM and 1500 nM, respectively.

As for `COC(=O)CSCCCS[C@H]1C(=O)C[C@@H](O)[C@@H]1/C=C/C(C)(O)Cc1ccc2ccccc2c1` (stereo partly drawn) [Example 30H, {3-[(1R,2S,3R)-3-Hydroxy-2-((E)-3-hydroxy-3-methyl-4-naphthalen-2-yl-but-1-enyl)-5-oxocyclopentylsulfanyl]propylsulfanyl}acetic acid methyl ester], the IC50 in assay [1] is more than 10000 nM; in assay [2], 3100 nM.

As to `COC(=O)CSCCCS[C@H]1C(=O)C[C@@H](O)[C@@H]1/C=C/C(C)(O)Cc1ccc2ccccc2c1` (stereo partly drawn) [Example 30L, {3-[(1R,2S,3R)-3-Hydroxy-2-((E)-3-hydroxy-3-methyl-4-naphthalen-2-yl-but-1-enyl)-5-oxocyclopentylsulfanyl]propylsulfanyl}acetic acid methyl ester], the concentration for half-maximal inhibition (IC50) in assay [2] is 3200 nM.

For the compound `CC(O)(/C=C/[C@H]1[C@H](O)CC(=O)[C@@H]1SCCCSCC(=O)O)Cc1ccc2ccccc2c1` (stereo partly drawn) [Example 31H, {3-[(1R,2S,3R)-3-Hydroxy-2-((E)-3-hydroxy-3-methyl-4-naphthalen-2-yl-but-1-enyl)-5-oxocyclopentylsulfanyl]propylsulfanyl}acetic acid], the IC50 in assay [1] stood at 8100 nM; in assay [2] it was 300 nM.

For `COC(=O)CSCCCS[C@H]1C(=O)C[C@@H](O)[C@@H]1/C=C/[C@@](C)(O)CCc1cc2ccccc2s1` [Example 33H, {3-[(1R,2S,3R)-3-Hydroxy-2-((S)-(E)-3-(hydroxy)-3-(methyl)-5-(benzothienyl)pent-1-enyl)-5-oxocyclopentylsulfanyl]propylsulfanyl}acetic acid methyl ester], in assay [2], the half-inhibitory concentration (IC50) was determined as 200 nM.

Take `COC(=O)CSCCCS[C@H]1C(=O)C[C@@H](O)[C@@H]1/C=C/[C@@](C)(O)CCc1cc2ccccc2s1` [Example 33L, {3-[(1R,2S,3R)-3-Hydroxy-2-((S)-(E)-3-(hydroxy)-3-(methyl)-5-(benzothienyl)pent-1-enyl)-5-oxocyclopentylsulfanyl]propylsulfanyl}acetic acid methyl ester]: in assay [2], the IC50 was 300 nM.
